Results from publication PMC8170916, “Sublingual AKBA Exerts Antidepressant Effects in the Aβ-Treated Mouse Model” (Biomolecules, 2021).

What was measured:
[1] = Plasmatic AKBA levels after sublingual or intranasal administration; type: in vivo, mice; settings: 5 mg/kg
Method: AKBA (Cayman Chemical Company) was dissolved in sunflower oil, this vehicle was chosen in order to maintain a better tasting and higher density of the final solution thus reducing reflux through the digestive tract. […] Ten µL of the solution (or vehicle alone) was sublingually administered to mice. For intranasal administration, requiring more hydrophilic solution, AKBA was dissolved in DMSO and saline (1:3, v/v), and given to mice at the same final dose of 5 mg/kg. […]
[…] The pellets were then removed, and the remaining supernatants were dried on sodium sulphate anhydrous, filtered with 0.20 µm PTFE syringe filters and used for chemical analysis. The quantification of 3-O-acetyl-11-keto-β-boswellic acid (AKBA) was performed by using GC-MS/IT equipment composed of a gas chromatograph GC-7890B (Agilent Technologies, Santa Clara, CA, USA) coupled with an ion trap mass spectrometer IT-240 (Agilent Technologies).
The gas chromatograph was equipped with a VF-5 ms (Agilent J&W GC Columns) capillary column, 30 m × 0.25 mm i.d. × 0.25 µm. […]
The MS electron multiplier voltage was set at 1450 V, and an ionization time of 65,000 µs was used, running in the electron impact (EI) mode. […] These characteristic fragments were selected as a mass target to develop the MS acquisition method operating in single ion scan mode (SIS) to improve the LOD and LOQ for AKBA quantification. […]

APPswe/PS1dE9 = test system: APPswe/PS1dE9; design: method as in PMID 32109514; settings: AD genetic model; cited from earlier work
intact mice = test: Preliminary experiments on antidepressant effects in intact mice; type: in vivo; settings: unpublished observations
Method: AKBA (Cayman Chemical Company) was dissolved in sunflower oil, this vehicle was chosen in order to maintain a better tasting and higher density of the final solution thus reducing reflux through the digestive tract. […] Ten µL of the solution (or vehicle alone) was sublingually administered to mice. For intranasal administration, requiring more hydrophilic solution, AKBA was dissolved in DMSO and saline (1:3, v/v), and given to mice at the same final dose of 5 mg/kg. Cerebral AKBA was quantified in a separate subset of mice at 5, 15 and 30 min after its administration, either sublingually or intranasally.

5-LOX = test system: 5-LOX; design: method as in PMID 9760176; settings: cited from earlier work
Aβ-treated mice [2] = test: Tail suspension test in Aβ-treated mice; type: in vivo; settings: mice 7 days after icv Aβ 4 µM, sublingual AKBA 5 mg/kg 30 min before, Aβ vs SHAM
Aβ-treated mice [3] = test: Splash test in Aβ-treated mice; type: in vivo; settings: mice 7 days after icv Aβ 4 µM
[4] = sublingual AKBA 5 mg/kg 30 min before testing, Aβ vs SHAM, Aβ+AKBA vs Aβ

For `CC(=O)O[C@@H]1CC[C@@]2(C)[C@@H](CC[C@]3(C)[C@@H]2C(=O)C=C2[C@@H]4[C@@H](C)[C@H](C)CC[C@]4(C)CC[C@]23C)[C@@]1(C)C(=O)O` [AKBA, 3-O-acetyl-11-keto-β-boswellic acid], the “Plasmatic AUCs, sublingual vs intranasal” value [1] is given as “higher after sublingual administration”, the “Plasmatic AKBA levels” value ([1]; sublingual vs intranasal, 5, 15 and 30 min after administration) is given as “significantly higher after sublingual administration compared to intranasal” and the “Cerebral amyloid beta (Aβ) production and plaque burden in APPswe/PS1dE9” value (APPswe/PS1dE9) is given as “decrease cerebral amyloid beta (Aβ) production and plaque burden”. The “Cognitive impairments in APPswe/PS1dE9” value (APPswe/PS1dE9) was “able to reverse cognitive impairments”, the “Lowest dose showing antidepressant effects on intact mice” value (intact mice) was 5 mg/kg and the 5-LOX inhibition (5-LOX) was 5-LOX inhibitor. The “Immobility time in the tail suspension test” value (Aβ-treated mice [2]) was “prevented such an effect”, the “Depressive-like behavior induced by Aβ in the splash test, 5 min after AKBA” value (Aβ-treated mice [3]; sublingual AKBA 5 mg/kg 5 min before testing) was “not reverted” and the “Latency to leak in the splash test” value (Aβ-treated mice [3]; [4]) was “such an outcome was reverted”. For the same compound, the “Time spent performing self-care in the splash test” value (Aβ-treated mice [3]; [4]) was “prevented such an effect”.
